From ChEMBL document CHEMBL3603758, “Geraniin inhibits TGF-β1-induced epithelial-mesenchymal transition and suppresses A549 lung cancer migration, invasion and anoikis resistance” (2015) come the findings set out here.

Active and inactive are the calls of the source. The calls are words filed in the database; no cut-off is given here.

For assay [1], the system named is A549. In words: Inhibition of TGFbeta1-induced cell migration of human A549 cells at 15 and 20 uM incubated for 48 hrs by wound healing assay. Format: functional, cell-based.
Assay [2] deals with A549. In words: Antiproliferative activity against human A549 cells assessed as inhibition of cell growth at 30 uM incubated for 48 hrs by CCK8 assay. It is filed as functional, cell-based.
The subject of assay [3] is A549. As to the kind of experiment: Antiproliferative activity against human A549 cells assessed as cell survival rate at 10 uM incubated for 48 hrs by CCK8 assay. Format: functional. The following applies: A549, 48 h, read-out: Survival. (Formazan colour is commonly taken as a measure of viable cells.)
Assay [4] relates to A549. As to the kind of experiment: Inhibition of TGFbeta1-induced epithelial-mesenchymal transition in human A549 cells assessed as suppression of mesenchymal phenotype at 15 and 20 uM pre-treated for 2 hrs before TGFbeta1 stimulation for 48 hrs. It is filed as functional, cell-based.
Assay [5] relates to A549. In words: Inhibition of TGFbeta1-induced cell invasion of human A549 cells at 15 and 20 uM incubated for 48 hrs by matrigel cell invasion assay. It is filed as functional, cell-based.
In assay [6] the test system is A549. As to the kind of experiment: Antiproliferative activity against human A549 cells assessed as cell survival rate at 5 uM incubated for 48 hrs by CCK8 assay. It is filed as functional. The following applies: A549, 48 h, read-out: Survival.
Assay [7] relates to A549. As to the kind of experiment: Inhibition of TGFbeta1-induced anoikis resistance in human A549 cells grown on poly-HEMA-coated tissue culture plates assessed reduction in cell proliferation at 15 and 20 uM pre-treated for 2 hrs before TGFbeta1 stimulation for 48 hrs by SRB assay. Format: functional, cell-based. (In general: In SRB staining, fixed cells bind dye roughly in proportion to their protein.)

The test system of assay [8] is A549. In words: Antiproliferative activity against human A549 cells assessed as effect on cell proliferation at =< 30 uM incubated for 24 hrs by CCK8 assay. Format: functional, cell-based.
The test system of assay [9] is A549. In words: Inhibition of TGFbeta1-induced increase in vimentin expression in human A549 cells at 15 and 20 uM pre-treated for 2 hrs before TGFbeta1 stimulation for 48 hrs by Western blot method. It is filed as functional, cell-based. (Immunoblotting shows a protein as a band on a membrane.)
Assay [10] deals with A549. As to the kind of experiment: Inhibition of TGFbeta1-induced increase in Snail protein expression in human A549 cells at 15 and 20 uM pre-treated for 2 hrs before TGFbeta1 stimulation for 48 hrs by Western blot method. Format: functional, cell-based.
The test system of assay [11] is A549. As to the kind of experiment: Inhibition of TGFbeta1-induced anoikis resistance in human A549 cells grown on poly-HEMA-coated tissue culture plates at 15 and 20 uM pre-treated for 2 hrs before TGFbeta1 stimulation for 48 hrs. It is filed as functional, cell-based.
Assay [12] has as its system A549. In words: Inhibition of TGFbeta1-induced anoikis resistance in human A549 cells grown on poly-HEMA-coated tissue culture plates assessed reduction in PARP cleavage at 15 and 20 uM pre-treated for 2 hrs before TGFbeta1 stimulation for 48 hrs by Western blot method. It is filed as functional, cell-based.
For assay [13], the system named is A549. In words: Antiproliferative activity against human A549 cells assessed as cell survival rate at 20 uM incubated for 48 hrs by CCK8 assay. It is filed as functional. The settings on record: A549, 48 h, read-out: Survival.
The subject of assay [14] is A549. As to the kind of experiment: Inhibition of TGFbeta1-induced increase in N-cadherin expression in human A549 cells at 15 and 20 uM pre-treated for 2 hrs before TGFbeta1 stimulation for 48 hrs by Western blot method. It is filed as functional, cell-based.
Assay [15] has as its system A549. As to the kind of experiment: Inhibition of TGFbeta1-induced increase in Snail gene expression in human A549 cells at 15 and 20 uM pre-treated for 2 hrs before TGFbeta1 stimulation for 48 hrs by qRT-PCR method. Format: functional, cell-based.
Assay [16] has as its system A549. In words: Antiproliferative activity against human A549 cells assessed as cell survival rate at 2.5 uM incubated for 48 hrs by CCK8 assay. The settings on record: A549, 48 h, read-out: Survival. Format: functional.
For assay [17], the target named is Mothers against decapentaplegic homolog 2 (Homo sapiens) (UniProt Q15796). As to the kind of experiment: Inhibition of TGFbeta1-induced Smad2 phosphorylation in human A549 cells at 15 and 20 uM pre-treated for 2 hrs before TGFbeta1 stimulation for 48 hrs by Western blot method. It is filed as cell-based.
The test system of assay [18] is A549. As to the kind of experiment: Inhibition of TGFbeta1-induced reduction in E-cadherin expression in human A549 cells at 15 and 20 uM pre-treated for 2 hrs before TGFbeta1 stimulation for 48 hrs by Western blot method. Format: functional, cell-based.
Assay [19] concerns A549. As to the kind of experiment: Inhibition of TGFbeta1-induced reduction in E-cadherin expression in human A549 cells assessed as suppresion of mesenchymal phenotype at 15 and 20 uM pre-treated for 2 hrs before TGFbeta1 stimulation for 48 hrs by Western blot method. Format: functional, cell-based.
Assay [20] deals with A549. In words: Antiproliferative activity against human A549 cells assessed as cell survival rate at 15 uM incubated for 48 hrs by CCK8 assay. It is filed as functional. The settings on record: A549, 48 h, read-out: Survival.

Sequence of Mothers against decapentaplegic homolog 2 (Homo sapiens) (Q15796 whole entry): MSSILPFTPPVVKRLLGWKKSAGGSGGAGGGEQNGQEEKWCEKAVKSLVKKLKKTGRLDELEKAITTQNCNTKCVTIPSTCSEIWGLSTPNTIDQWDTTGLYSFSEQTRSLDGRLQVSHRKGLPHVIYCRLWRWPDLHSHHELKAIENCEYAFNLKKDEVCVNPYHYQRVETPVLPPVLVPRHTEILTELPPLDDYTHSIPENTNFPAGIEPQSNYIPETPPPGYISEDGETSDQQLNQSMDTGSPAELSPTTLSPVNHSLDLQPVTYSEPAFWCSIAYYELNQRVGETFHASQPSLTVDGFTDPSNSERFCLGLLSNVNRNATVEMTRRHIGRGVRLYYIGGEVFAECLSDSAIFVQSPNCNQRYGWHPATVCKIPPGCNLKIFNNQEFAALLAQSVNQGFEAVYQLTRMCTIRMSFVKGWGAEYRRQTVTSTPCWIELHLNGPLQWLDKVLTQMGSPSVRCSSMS

With `O=C1O[C@H]2[C@@H]3OC(=O)c4cc(O)c(O)c(O)c4-c4c(cc(O)c(O)c4O)C(=O)OC[C@H]2O[C@@H](OC(=O)c2cc(O)c(O)c(O)c2)[C@@H]3OC(=O)c2cc(O)c(O)c3c2[C@@H]2C1=CC(=O)[C@](O)(O3)C2(O)O` [GERANIIN], the inhibition entry in assay [1], in assay [7], in assay [10] and in assay [15] was “Dose-dependent effect” throughout. The “growth inhibition (GI)” value in assay [2] is “Active”. The viability at 10 µM in assay [3] was greater than 90%. Also, the inhibition result in [4], in assay [5], in assay [9], in [11], in [12] and in assay [14] was “Active” in each case. The inhibition result in [17], in assay [18] and in assay [19] was “Active” in each case. The viability at 5 µM in [6] is greater than 90%. For the same compound, the outcome in [8] was inactive. Moreover, the viability at 20 µM in [13] was greater than 90%. Besides, the viability at 2.5 µM in assay [16] is greater than 90%. Moreover, in [20], the viability at 15 µM was greater than 90%.
